Read-outs that look alike come from different tables or passages of the source.
Columns and labels:
[1] = molecular target: T1, ovine COX-1 (Ovis aries, UniProt P05979); experiment: IC50 determinations using purified enzymes (TLC assay), COX-1; format: biochemical; conditions: assayed against purified enzymes
T1 construct: can be purified from ovine seminal vesicles by standard procedures; from tissue; host or cells: ovine seminal vesicles
T1 sequence (P05979 25-600): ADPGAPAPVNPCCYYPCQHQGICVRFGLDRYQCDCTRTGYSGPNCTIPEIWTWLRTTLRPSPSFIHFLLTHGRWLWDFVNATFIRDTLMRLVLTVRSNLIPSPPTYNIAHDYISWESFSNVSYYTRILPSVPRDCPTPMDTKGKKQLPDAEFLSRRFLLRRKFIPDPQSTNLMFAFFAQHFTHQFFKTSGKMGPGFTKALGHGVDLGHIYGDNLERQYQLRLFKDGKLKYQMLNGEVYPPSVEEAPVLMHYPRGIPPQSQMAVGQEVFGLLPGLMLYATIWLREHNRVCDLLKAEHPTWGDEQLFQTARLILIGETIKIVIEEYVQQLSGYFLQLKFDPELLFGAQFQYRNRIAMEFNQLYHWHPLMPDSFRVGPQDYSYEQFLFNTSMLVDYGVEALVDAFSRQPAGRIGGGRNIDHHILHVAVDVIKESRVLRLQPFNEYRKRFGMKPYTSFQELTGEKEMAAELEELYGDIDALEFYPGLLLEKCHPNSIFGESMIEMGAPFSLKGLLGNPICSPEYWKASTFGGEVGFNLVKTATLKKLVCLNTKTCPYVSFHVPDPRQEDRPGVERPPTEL
Source text: (§1) Those skilled in the art will appreciate that an evaluation of the selectivity and efficacy of binding of the NSAID derivative to the COX-2 enzyme, e.g., after the derivative is synthesized, can be desirable. […] One example of an in vitro screening method takes advantage of the fact that both human and murine recombinant COX-2 can be expressed and isolated in pure form from an Sf9 cell expression system. […] Alternatively, membrane preparations from outdated human platelets can provide a source of human COX-1. […] The reaction is stopped by the addition of ethanol/methanol/1 M citrate, pH 4.0 (30:4:1). The extracted products are separated by thin layer chromatography (TLC), which allows quantitation of total product formation as well as assessment of product distribution. This assay is useful to define IC50 values for inhibition of either enzyme, and to determine time-dependency of inhibition. It also provides information concerning changes in products formed as a result of inhibition.
(§2) Reactions were terminated by solvent extraction in Et2O/CH3OH/1 M citrate, pH 4.0 (30:4:1). The phases were separated by centrifugation at 2000 g for 5 minutes and the organic phase was spotted on a 20×20 cm TLC plate (Lieselgel 60, EMD Chemicals, Inc., Gibbstown, N.J., United States of America). The plate was developed in EtOAc/CH2Cl2/glacial AcOH (75:25:1) at 4° C. Radiolabeled prostanoid products were quantitatively determined with a radioactivity scanner available from Bioscan, Inc. (Washington, D.C., United States of America). The percentage of total products observed at different concentrations of the presently disclosed compositions was divided by the percentage of products observed for protein samples preincubated for the same amount of time with DMSO.

[2] = molecular target: T2, COX-2 (Homo sapiens, UniProt P35354); experiment: IC50 determinations using purified enzymes (TLC assay), COX-2; format: biochemical; set-up: made in house; host or cells: Sf9 insect cells
T2 sequence (P35354 18-604): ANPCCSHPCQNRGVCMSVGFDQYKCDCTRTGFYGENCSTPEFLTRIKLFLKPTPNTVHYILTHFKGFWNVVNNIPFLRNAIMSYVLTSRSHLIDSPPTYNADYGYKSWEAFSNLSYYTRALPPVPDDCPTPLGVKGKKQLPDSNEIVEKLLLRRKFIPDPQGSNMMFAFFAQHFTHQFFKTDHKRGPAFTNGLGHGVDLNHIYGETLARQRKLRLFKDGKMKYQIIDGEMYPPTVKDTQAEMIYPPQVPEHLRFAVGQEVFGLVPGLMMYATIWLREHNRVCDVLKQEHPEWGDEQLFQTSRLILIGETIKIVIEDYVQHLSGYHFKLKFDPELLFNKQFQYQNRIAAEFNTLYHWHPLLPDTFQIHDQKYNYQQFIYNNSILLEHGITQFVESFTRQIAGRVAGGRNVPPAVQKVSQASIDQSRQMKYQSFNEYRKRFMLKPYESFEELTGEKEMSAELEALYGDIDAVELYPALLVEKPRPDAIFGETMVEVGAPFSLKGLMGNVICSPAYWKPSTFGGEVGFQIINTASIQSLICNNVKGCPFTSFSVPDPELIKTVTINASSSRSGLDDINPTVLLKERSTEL
Source text: as §1, §2

[3] = Table 3, assayed against purified enzymes, read-out: IC50 COX-2

SMILES	IC50 ([1]; Table 3)	IC50 [2, 3]	IC50 ([1]; Table 1)	IC50 ([2]; purified enzyme, read-out: COX-2 IC50)
COc1ccc2c(c1)c(CC(=O)NCCCNC(=O)c1ccc(C(=O)[O-])c(-c3c4ccc(=[N+](C)C)cc-4oc4cc(N(C)C)ccc34)c1)c(C)n2C(=O)c1ccc(Cl)cc1 [Compound 27aaa]	> 25 µM	3.9 µM		
COc1ccc2c(c1)c(CC(=O)NCCCN1CCN(CCCNC(=O)c3ccc(C(=O)[O-])c(C4=c5cc6c7c(c5Oc5c4cc4c8c5CCCN8CCC4)CCC[N+]=7CCC6)c3)CC1)c(C)n2C(=O)c1ccc(Cl)cc1 [Compound 27bbb]	> 25 µM	> 25 µM		
COc1ccc2c(c1)c(CC(=O)NCCN1CCN(C(=O)c3ccc(C(=O)[O-])c(C4=c5cc6c7c(c5Oc5c4cc4c8c5CCCN8CCC4)CCC[N+]=7CCC6)c3)CC1)c(C)n2C(=O)c1ccc(Cl)cc1 [Compound 27ccc]	> 25 µM	> 25 µM		
COc1ccc2c(c1)c(CC(=O)N1CCNCC1)c(C)n2C(=O)c1ccc(Cl)cc1 [Compound 27ddd]	1.8 µM	> 25 µM		
COc1ccc2c(c1)c(CC(=O)N1CCN(C(=O)c3ccc(C(=O)[O-])c(C4=c5cc6c7c(c5Oc5c4cc4c8c5CCCN8CCC4)CCC[N+]=7CCC6)c3)CC1)c(C)n2C(=O)c1ccc(Cl)cc1 [Compound 27fff]	> 25 µM	> 25 µM		
COc1ccc2c(c1)c(CC(=O)NCCNC(=O)c1ccc(C3=c4cc5c6c(c4Oc4c3cc3c7c4CCCN7CCC3)CCC[N+]=6CCC5)c(C(=O)[O-])c1)c(C)n2C(=O)c1ccc(Cl)cc1 [Compound 27ggg]	0.5 µM	2.8 µM		
COc1ccc2c(c1)c(CC(=O)N1CCN(C(=O)c3ccc(C4=c5cc6c7c(c5Oc5c4cc4c8c5CCCN8CCC4)CCC[N+]=7CCC6)c(C(=O)[O-])c3)CC1)c(C)n2C(=O)c1ccc(Cl)cc1 [Compound 27hhh]	5.8 µM	1.3 µM		

More lines, now with the values ahead:

IC50 ([1]; Table 3)	IC50 [2, 3]	IC50 ([1]; Table 1)	IC50 ([2]; purified enzyme, read-out: COX-2 IC50)	SMILES
0.214 µM	0.134 µM			COc1ccc2c(c1)c(CC(=O)NCCCNS(=O)(=O)c1ccc(/N=N/c3ccc(N(C)C)cc3)cc1)c(C)n2C(=O)c1ccc(Cl)cc1 [Compound 27bb]
> 25 µM	> 25 µM			COc1ccc2c(CC(=O)NCCNC(=O)Cc3c(C)n(C(=O)c4ccc(Cl)cc4)c4ccc(OC)cc34)cc(=O)oc2c1 [Compound 27dd]
> 25 µM	0.6 µM			COc1ccc2c(c1)c(CC(=O)NCCCNC(=O)c1cc3ccccc3oc1=O)c(C)n2C(=O)c1ccc(Cl)cc1 [Compound 27ee]
> 25 µM	0.031 µM			CCN(CC)c1ccc2cc(C(=O)NCCCCNC(=O)Cc3c(C)n(C(=O)c4ccc(Cl)cc4)c4ccc(OC)cc34)c(=O)oc2c1 [Compound 27ff]
> 25 µM	0.053 µM			CCN(CC)c1ccc2cc(C(=O)NCCCNC(=O)Cc3c(C)n(C(=O)c4ccc(Cl)cc4)c4ccc(OC)cc34)c(=O)oc2c1 [Compound 27gg]
		> 4 µM	0.107 µM	COc1ccc2c(c1)c(CC(=O)NCCNC(=O)/C=C(C)/C=C/C=C(C)/C=C/C1=C(C)CCCC1(C)C)c(C)n2C(=O)c1ccc(Cl)cc1 [Compound 27h]
> 25 µM	0.51 µM			COc1ccc2c(c1)c(CC(=O)NCCNC(=O)/C=C/c1ccc(N(C)C)cc1)c(C)n2C(=O)c1ccc(Cl)cc1 [Compound 27hh]
5.35 µM	> 25 µM			COc1ccc2c(c1)c(CC(=O)NCCNC(=S)Nc1ccc(-c3c4ccc(=O)cc-4oc4cc(O)ccc34)c(C(=O)O)c1)c(C)n2C(=O)c1ccc(Cl)cc1 [Compound 27jj]

Source: patent US7736624B2, “Methods and compositions for diagnostic and therapeutic targeting of COX-2” (priority 2006, dated 2010)
